From patent US11510886B2, “Metformin amino acid compounds and methods of using the same” (Laboratorios Silancs S.A. DE C.V., priority 2016, dated 2022) come the findings set out here.

Data set [1] can be described thus: in vivo. The following applies: female, Sprague Dawley, rat, plasma, po, 250 mg/kg.
Data set [2] has as its system insulin receptor. As to the kind of experiment: Insulin receptor β subunit in plasma membrane of C2C12 myotubes. The class given is cell-based, Mice. The following applies: 10 mM, 3 hours (FIG. 76), listed as SLN10. The method, then:
FIG. 76. Metformin lysinate promotes the accumulation of insulin receptor β subunit in plasma membrane. C2C12 cells were differentiated for 5 days in DMEM supplemented with 2% horse serum; then, cultures were treated for 3 hours with SLN1 or SLN10 10 mM, or with vehicle (control) at 37° C. Similar quantities of each extract were analyzed by Western blot with insulin receptor subunit (IRP) specific antibodies.

Data set [3] relates to AMPK and GLUT4 in NIH-3T3-L1 adipocytes. Nature of the data set: AMPK activation and GLUT4 in plasma membrane of L1 adipocytes (Western blot). The settings on record: 10 mM, 3 hours. It is filed as cell-based, Mice. The method, then:
. 2 days in culture media supplemented with insulin 1 μg/mL; and 6 days in culture media. […]. Similar quantities of each extract were analyzed using Western blot (SDS-PAGE and electrotransfer), with the indicated antibodies and chemiluminescence (ECL Prime, GE Healthcare). FIGS. 70B-C show pictures of L1 adipocyte cultures treated as in FIG. 70A and exposed to fractioning for protein extraction from plasma membrane by a procedure described above (Nishiumi & Ashida. Biosci Biotechnol Biochem. 2007; 71:2343-6). Briefly, cells were washed with PBS and collected in solution A (Tris 50 mM, pH 8.0, DTT 0.5 mM, 0.1% Nonidet P-40, PMSF 1 mM, leupeptin 5 μg/mL, aprotinin 5 μg/mL, NaF 10 mM, Na3VO4 1 mM) and lysed manually with a Dounce homogenizer (20 pestle movements). Homogenized solutions were centrifuged (1000×g, 10 minutes, 4° C.), cell precipitates were dispersed in solution A, without Nonidet P-40, stored in ice for 10 minutes, occasionally stirred, and centrifuged again (1000×g, 10 minutes, 4° C.). […]. Supernatants were stored at −80° C. until analysis. Equivalent quantities of demembrane extracts were analyzed by Western blot with anti-GLUT4 (Abcam) antibodies. […]
On the technique in general: Immunoblotting shows a protein as a band on a membrane.

The test system of data set [4] is L1 adipocytes. Nature of the data set: Inflammation markers in L1 adipocytes treated with palmitate (RT-qPCR). It is filed as cell-based, Mice. The following applies: palmitate 500 μM, 10 mM, 24 hours (FIG. 79). The protocol: FIG. 79. […] Differentiated L1 adipocytes (cells) were treated for 24 hours with palmitate (500 μM), either in the presence or in the absence of SLN1 or SLN10 (10 mM). Subsequently, the relative expression of inflammation markers was analyzed by RT and qPCR, using HPRT-1 as a normalizer and as a reference for expression levels of non-treated cells (MCP-1 and IL-12), and for those treated only with palmitate (proIL-1β, TNFα, iNOS, IL-6). Briefly, once finished, culture media treatments were collected for subsequent analysis, cells were washed with PBS, and RNA was extracted (illustra RNAspin Mini, GE Healthcare) and retro-transcribed (High Capacity cDNA Reverse Transcription Kit, Life Technologies); then, the genes under study were analyzed by using a quantitative PCR with specific probes (TaqMan® Gene Expression Assays, Life Technologies), estimating the relative quantification (RQ) with the ΔΔ Ct method.
Palmitate is a saturated fatty acid that simulates an experimental obese state. It can be used as a pro-inflammatory stimulant for cytokines such as proIL-1β, TNFα, INOS, IL-6, MCP-1, and IL-12. Adipocytes cultured in the absence or presence of palmitate were treated with SLN1 or SLN10, and the expression of inflammation markers was determined by quantitative RT-PCR (FIG. 79).

In data set [5] the test system is RAW264.7 macrophages. As to the kind of experiment: GPBP and pro-IL-1β expression in stimulated RAW264.7 macrophages. The class given is cell-based. The method, then: FIG. 87. […] RAW264.7 macrophages cultured in DMEM, supplemented with 10% FBS and antibiotics, were treated with the indicated concentrations of either SLN1, SLN10 for 2 hours, after which LPS (1 μg/mL) was added to cultures. After incubating for 16 hours, the relative expression quantification (RQ) for GPBP was analyzed by RT-qPCR, using HPRT-1 as a normalizer and non-stimulated cells (cells) as a reference point.
FIG. 88. […] RAW264.7 macrophages were treated as shown in FIG. 87 and analyzed by flow cytometry, using for sample processing the Cytofix/Cytoperm (BD) kit, according to the manufacturer's instructions, as well as specific antibodies against GPBP (N27) and pro-IL-1β, conjugated with FITC and phycoerythrin (PE), correspondingly. The intensity of fluorescence (IF) emission median value is shown in arbitrary units (a.u.) for each of the series. Non-treated cells were used as a reference point and their corresponding isotype controls were carried out. The median is usually used in fluorescence quantitative studies to minimize the influence of extreme values that may distort the real mean value. Isotype controls were carried out to eliminate background, caused by nonspecific fluorescence; nonspecific antibodies from the same isotype of those used to detect GPBP and pro-IL-1β were used. […]

Where a name gives a salt, the structure may show the parent alone.

Consider `CN(C)C(=N)N=C(N)N` [Metformin hydrochloride, metformin hydrochloride, reference compound], for which, in data set [1], the AUC(0-t) amounted to 82000 ng·h/mL, the peak level (Cmax) was 16300 ng/mL, the Tmax was 30 min and the concentration at 0.5 h worked out at 16300 ± 5100 ng/mL. Besides, in data set [1], the concentration at 1 h was 14800 ± 5070 ng/mL, the concentration at 2 h is 11900 ± 3240 ng/mL, the concentration at 4 h was 6830 ± 1650 ng/mL and the concentration at 8 h was found to be 3140 ± 1050 ng/mL. Also, the concentration at 24 h in data set [1] came out at 190 ± 100 ng/mL.
As for metformin lysinate, the “accumulation of insulin receptor in the plasma membrane” value in data set [2] was “promotes the accumulation of insulin receptor in the plasma membrane”. Besides, in data set [3], the AMPK activation result is recorded as “activates AMPK” and the “GLUT4 accumulation in the plasma membrane” value is given as “induces a GLUT4 accumulation in the plasma membrane”. Further, the “attenuation of inflammatory response of adipocytes stimulated with palmitate” value in data set [4] is on record as “much more effective”. Further, in data set [5] (FIG. 90), the “GPBP secretion induced by LPS and IC” value is listed as “less ability to reduce GPBP secretion”. Also, in data set [5] (LPS or LPS and IFN-γ, flow cytometry (FIGS. 88, 89)), the “induced expression of GPBP” value is on record as “more efficiently inhibited by SLN10”.

A word on the AUC(0-t): it is exposure summed from dosing to a finite time, without extrapolation to infinity. Read a high AUC(0-t) as high exposure. As a reminder, the Cmax is the peak of the concentration-time curve. By Tmax is commonly meant the time at which the peak concentration occurs.
